Assay [1] addresses T1, 5HT2A receptor (Homo sapiens, UniProt P28223). Nature of the assay: cell-based. On the set-up: expressed in transfected cells; host or cells: HEK293T cells, transient co-transfection. The conditions noted are these: for Emax: HEK-293T.
The target in assay [2] is T1, 5HT2A receptor. Nature of the assay: cell-based. On the set-up: expressed in transfected cells; host or cells: HEK293T cells, transient co-transfection. The following applies: for Emax: HEK-293T. The source holds these as a separate data set.
The target in assay [3] is T1, 5HT2A receptor. The assay can be described thus: biochemical. In kind it is binding. Further details: expressed in transfected cells; crude membranes.
Setting [4] is: 5HT2A Gq EC50 (nM), BRET2 Gαq dissociation, HEK293T cells.
[5] abbreviates: 5HT2A β-Arr EC50 (nM), BRET1 beta-arrestin2 recruitment, HEK293T cells.
Where [6] appears, read: 5HT2A Ki (nM), secondary radioligand binding, Ki from IC50 by Cheng-Prusoff.
The mark [7] stands for this setting: BRET2 Gαq dissociation, HEK293T, read-out: 5HTA Gq EC50.
Where [8] appears, read: BRET2 Gαq dissociation, HEK293T, normalized to 5-HT, read-out: 5HTA Gq Emax (%).
[9] abbreviates: BRET1 beta-arrestin2 recruitment, HEK293T, normalized to 5-HT, read-out: 5HT2A β-Arr Emax (%).
[10] abbreviates: 5HT2A Ki (nM), secondary binding assay, Cheng-Prusoff.
Where [11] appears, read: 5HT2A β-Arr EC50 (nM), BRET1 beta-arrestin2 recruitment, HEK293T.
[12] abbreviates: 5HTA Gq EC50 (nM), BRET2 Gαq dissociation, HEK293T.
Where [13] appears, read: BRET2 Gαq dissociation, HEK293T cells, normalized to 5-HT, read-out: 5HT2A Gq Emax (%).
[14] abbreviates: BRET1 beta-arrestin2 recruitment, HEK293T cells, normalized to 5-HT, read-out: 5HT2A β-Arr Emax (%).
The mark [15] stands for this setting: read-out: 5HTA Gq Emax (%), BRET2 Gαq dissociation, HEK293T, normalized to 5-HT.

Read-outs that look alike come from different tables or passages of the source.

T1 sequence (P28223 whole entry): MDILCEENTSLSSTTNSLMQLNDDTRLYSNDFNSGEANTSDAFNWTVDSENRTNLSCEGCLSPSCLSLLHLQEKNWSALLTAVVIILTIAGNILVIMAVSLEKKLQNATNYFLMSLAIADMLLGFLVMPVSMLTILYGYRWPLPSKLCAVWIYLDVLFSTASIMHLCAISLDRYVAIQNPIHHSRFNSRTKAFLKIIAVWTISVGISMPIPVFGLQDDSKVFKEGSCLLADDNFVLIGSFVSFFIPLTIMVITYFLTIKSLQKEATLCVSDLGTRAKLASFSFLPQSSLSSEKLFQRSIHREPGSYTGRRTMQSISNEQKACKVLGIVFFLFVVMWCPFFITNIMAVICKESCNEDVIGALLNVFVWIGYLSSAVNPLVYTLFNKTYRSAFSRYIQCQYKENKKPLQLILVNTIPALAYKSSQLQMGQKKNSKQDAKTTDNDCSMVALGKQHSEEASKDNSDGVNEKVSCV

One may read the EC50 as the concentration that produces a half-maximal response. As usually defined, the Emax is the greatest response seen or fitted, relative to the assay's reference. The Ki is the equilibrium dissociation constant of an inhibitor or competing ligand from its target. As to `CN1CCC=C(c2n[nH]c3c(F)cccc23)C1` [Example 107, 7-fluoro-3-(1-methyl-1,2,5,6-tetrahydropyridin-3-yl)-1H-indazole], the EC50 turned out to be 34.5 nM on 5HT2A receptor [1] (setting [4]) and 213 nM at 5HT2A receptor [2] (setting [5]). Further, the Emax amounted to 68.1% at 5HT2A receptor [1] (read-out: 5HT2A Gq Emax (%), BRET2 Gαq dissociation, HEK293T cells, normalized to 5-HT) and 36.3% on 5HT2A receptor [2] (read-out: 5HT2A β-Arr Emax (%), BRET1 beta-arrestin2 recruitment, HEK293T cells, normalized to 5-HT). The affinity at 5HT2A receptor [3] (setting [6]) corresponds to a Ki of 883 nM.
Turning to `Clc1cccc2c(C3=CCNC3)c[nH]c12` [Example 209, 7-chloro-3-(2,5-dihydro-1H-pyrrol-3-yl)-1H-indole], the EC50 at 5HT2A receptor [1] (setting [7]) stood at 8.1 nM; at 5HT2A receptor [2] (BRET1 beta-arrestin2 recruitment, HEK293T, read-out: 5HT2A β-Arr EC50), 60.7 nM. Moreover, the Emax turned out to be 100% at 5HT2A receptor [1] (setting [8]) and 88.1% at 5HT2A receptor [2] (setting [9]). Further, the affinity at 5HT2A receptor [3] (setting [10]) corresponds to a Ki of 160 nM.
Take `CCCN1CCC=C(c2c[nH]c3c(CC)cccc23)C1` [Example 158, 7-ethyl-3-(1-propyl-1,2,5,6-tetrahydropyridin-3-yl)-1H-indole]: the EC50 on 5HT2A receptor [1] (setting [7]) turned out to be 78.4 nM; on 5HT2A receptor [2] (setting [11]) it was 120 nM. Moreover, the results for the Emax on 5HT2A receptor [1] (setting [8]) and on 5HT2A receptor [2] (setting [9]) were 82.2% and 32.6%, respectively. The molecule further showed an inhibitory constant (Ki) at 5HT2A receptor [3] (setting [10]) of 368 nM.
Turning to `Cc1cccc2c(N3CCNCC3)n[nH]c12` [Example 230, 7-methyl-3-(piperazin-1-yl)-1H-indazole], the EC50 was 248 nM on 5HT2A receptor [1] (setting [12]) and 917 nM on 5HT2A receptor [2] (setting [11]). The Emax was 66.1% on 5HT2A receptor [1] (setting [8]) and 45.3% at 5HT2A receptor [2] (setting [9]). Also, at 5HT2A receptor [3] (setting [10]), the affinity, expressed as Ki, was 715 nM.
Take `COc1cnc2[nH]cc(C3=CCCN(C)C3)c2c1` [Example 6, 5-methoxy-3-(1-methyl-1,2,5,6-tetrahydropyridin-3-yl)-1H-pyrrolo[2,3-b]pyridine]: the EC50 on 5HT2A receptor [1] (setting [4]) was found to be 44.1 nM; on 5HT2A receptor [2] (setting [5]), 792 nM. In addition, the Emax came out at 65.9% at 5HT2A receptor [1] (setting [13]) and 33.4% at 5HT2A receptor [2] (setting [14]). The molecule further displayed an inhibitory constant (Ki) on 5HT2A receptor [3] (setting [6]) of 695 nM.
Turning to `CN1CCC=C(c2n[nH]c3cc(F)ccc23)C1` [Example 95, 6-fluoro-3-(1-methyl-1,2,5,6-tetrahydropyridin-3-yl)-1H-indazole], the EC50 was 21.1 nM at 5HT2A receptor [1] (BRET2 Gαq dissociation, HEK293T cells, read-out: 5HT2A Gq EC50) and 467 nM on 5HT2A receptor [2] (BRET1 beta-arrestin2 recruitment, HEK293T cells, read-out: 5HT2A β-Arr EC50). In addition, the maximal response (Emax) stood at 47.1% on 5HT2A receptor [1] (setting [13]) and 27% at 5HT2A receptor [2] (setting [14]). Moreover, the Ki at 5HT2A receptor [3] (secondary radioligand binding, Ki from IC50 by Cheng-Prusoff, read-out: 5HT2A Ki) was 47.3 nM.
Regarding `CCCN1CCC=C(c2n[nH]c3cccc(C#N)c23)C1` [Example 175, 3-(1-propyl-1,2,5,6-tetrahydropyridin-3-yl)-1H-indazole-4-carbonitrile], the EC50 amounted to 88.8 nM on 5HT2A receptor [1] (setting [7]) and 343 nM at 5HT2A receptor [2] (setting [11]). Also, the Emax was found to be 46.3% at 5HT2A receptor [1] (setting [8]) and 31.6% at 5HT2A receptor [2] (setting [9]). At 5HT2A receptor [3] (setting [10]), this molecule showed an inhibition constant (Ki) of 8250 nM.
With `COc1ccnc2[nH]cc(C3=CCCNC3)c12` [Example 10, 4-methoxy-3-(1,2,5,6-tetrahydropyridin-3-yl)-1H-pyrrolo[2,3-b]pyridine], the response on 5HT2A receptor [1] (setting [4]) was half-maximal at 125 nM (EC50). Moreover, at 5HT2A receptor [1] (setting [13]), the Emax amounted to 66.5%. Moreover, affinity at 5HT2A receptor [3] (setting [6]) was put at a Ki of 312 nM.
`Cc1[nH]c2ccccc2c1C1=CCCN(C)C1` [Example 63, 2-methyl-3-(1-methyl-1,2,5,6-tetrahydropyridin-3-yl)-1H-indole]: a half-maximal response on 5HT2A receptor [1] (setting [4]) (EC50) required 162 nM. For the same molecule, the Emax at 5HT2A receptor [1] (setting [13]) is 79%. The affinity at 5HT2A receptor [3] (setting [6]) corresponds to a Ki of 823 nM.
On to `CCCN1CCC=C(c2c[nH]c3ccncc23)C1` [Example 144, 3-(1-propyl-1,2,5,6-tetrahydropyridin-3-yl)-1H-pyrrolo[3,2-c]pyridine], for which the concentration giving a half-maximal response (EC50) at 5HT2A receptor [1] (setting [12]) turned out to be 1180 nM. In addition, the Emax on 5HT2A receptor [1] (setting [8]) was found to be 67.2%. Besides, the affinity at 5HT2A receptor [3] (setting [10]) corresponds to a Ki of 8250 nM.
On 5HT2A receptor [1] (setting [4]), `CN1CCC=C(c2n[nH]c3ccc(C#N)cc23)C1` [Example 103, 3-(1-methyl-1,2,5,6-tetrahydropyridin-3-yl)-1H-indazole-5-carbonitrile] displayed a 50% effective concentration (EC50) of 612 nM. Also, the maximal effect (Emax) on 5HT2A receptor [1] (setting [13]) is 64.9%. On 5HT2A receptor [3] (setting [6]), this molecule registered a Ki of 1390 nM.
As to `CN1CC2CC2(c2n[nH]c3c(Cl)cccc23)C1` (centres unmarked) [Example 183, 7-chloro-3-(3-methyl-3-azabicyclo[3.1.0]hexan-1-yl)-1H-indazole], the EC50 at 5HT2A receptor [1] (setting [12]) came to 251 nM. In addition, the Emax at 5HT2A receptor [1] (setting [15]) came to 69.7%. On 5HT2A receptor [3] (setting [10]), this molecule registered a Ki of 595 nM.
Take `CN1CCC=C(c2c[nH]c3nccc(-c4ccccc4)c23)C1` [Example 16, 3-(1-methyl-1,2,5,6-tetrahydropyridin-3-yl)-4-phenyl-1H-pyrrolo[2,3-b]pyridine]: a half-maximal effect at 5HT2A receptor [2] (setting [5]) (EC50) was put at 2140 nM. At 5HT2A receptor [2] (setting [14]), the Emax was determined as 49.6%. The Ki on 5HT2A receptor [3] (setting [6]) is 164 nM.
As to `Fc1cccc2c(C34CNCCC3C4)n[nH]c12` (centres unmarked) [Example 194, 3-(3-azabicyclo[4.1.0]heptan-1-yl)-7-fluoro-1H-indazole], the EC50 at 5HT2A receptor [1] (setting [12]) was 795 nM. Besides, the Emax at 5HT2A receptor [1] (setting [8]) was found to be 64.4%. The Ki at 5HT2A receptor [3] (setting [10]) is 2480 nM.
In turn, `CCc1ccc2[nH]cc(C3=CCCN(C)C3)c2c1` [Example 26, 5-ethyl-3-(1-methyl-1,2,5,6-tetrahydropyridin-3-yl)-1H-indole] had a concentration for a half-maximal effect (EC50) at 5HT2A receptor [1] (setting [4]) of 177 nM. Also, the Emax on 5HT2A receptor [1] (setting [13]) was 64.2%. Also, the affinity on 5HT2A receptor [3] (setting [6]) corresponds to a Ki of 166 nM.
The corresponding values for `Cn1cc(C2=CCCNC2)c2cccnc21` [Example 47, 1-methyl-3-(1,2,5,6-tetrahydropyridin-3-yl)-1H-pyrrolo[2,3-b]pyridine] are 379 nM, 48.7% and 796 nM.
`Cc1cccc2c(C34CC3CN(C)C4)n[nH]c12` (centres unmarked) [Example 227, 7-methyl-3-(3-methyl-3-azabicyclo[3.1.0]hexan-1-yl)-1H-indazole] showed an EC50 at 5HT2A receptor [1] (setting [12]) of 684 nM. At 5HT2A receptor [1] (setting [8]), the Emax amounted to 32.5%. This molecule yielded a Ki on 5HT2A receptor [3] (setting [10]) of 1450 nM.
On 5HT2A receptor [1] (setting [12]), `CCCN1CC=C(c2c[nH]c3c(Cl)cccc23)CC1` [Example 243, 7-chloro-3-(1-propyl-1,2,3,6-tetrahydropyridin-4-yl)-1H-indole] registered an EC50 of 104 nM. Also, the Emax at 5HT2A receptor [1] (setting [15]) is 41.9%. The molecule also registered an inhibition constant Ki on 5HT2A receptor [3] (setting [10]) of 27.2 nM.
In the case of `Clc1cccc2c(C3CC4CCC(C3)N4)n[nH]c12` (centres unmarked) [Example 225, 3-(8-azabicyclo[3.2.1]octan-3-yl)-7-chloro-1H-indazole], the EC50 on 5HT2A receptor [1] (setting [12]) was 500 nM. The Emax at 5HT2A receptor [1] (setting [8]) is 105%. For the same molecule, affinity at 5HT2A receptor [3] (setting [10]) was put at a Ki of 2110 nM.
On 5HT2A receptor [1] (setting [4]), `COc1cccc2c(C3=CCCN(C)C3)c[nH]c12` [Example 53, 7-methoxy-3-(1-methyl-1,2,5,6-tetrahydropyridin-3-yl)-1H-indole] registered an EC50 of 166 nM. The maximal effect (Emax) at 5HT2A receptor [1] (setting [13]) came out at 77.8%. The Ki on 5HT2A receptor [3] (setting [6]) worked out at 374 nM.
The corresponding values for `CN1CCC=C(c2c[nH]c3c(O)cccc23)C1` [Example 60, 3-(1-methyl-1,2,5,6-tetrahydropyridin-3-yl)-1H-indol-7-ol] are 440 nM, 64.3% and 795 nM.
Consider `CCCN1CCC=C(c2n[nH]c3c(Cl)cc(F)cc23)C1` [Example 173, 7-chloro-5-fluoro-3-(1-propyl-1,2,5,6-tetrahydropyridin-3-yl)-1H-indazole], for which, at 5HT2A receptor [1] (setting [7]), the EC50 was determined as 84.6 nM. Further, the Emax at 5HT2A receptor [1] (setting [8]) was 57.3%. On 5HT2A receptor [3] (setting [10]), affinity was put at a Ki of 839 nM.
As to `CN1CCC=C(c2n[nH]c3cc(Cl)ccc23)C1` [Example 94, 6-chloro-3-(1-methyl-1,2,5,6-tetrahydropyridin-3-yl)-1H-indazole], on 5HT2A receptor [1] (setting [4]), the EC50 worked out at 309 nM. The Emax at 5HT2A receptor [1] (setting [13]) was determined as 72.1%. Moreover, the Ki at 5HT2A receptor [3] (setting [6]) came to 1300 nM.
On 5HT2A receptor [1] (setting [12]), `Clc1cccc2c(C3=CC4CCC3NC4)n[nH]c12` (centres unmarked) [Example 223, 6-(7-chloro-1H-indazol-3-yl)-2-azabicyclo[2.2.2]oct-5-ene] yielded an EC50 of 717 nM. In addition, at 5HT2A receptor [1] (setting [15]), the Emax worked out at 89.7%. Moreover, the inhibition constant Ki on 5HT2A receptor [3] (setting [10]) worked out at 1920 nM.

The values above are taken from patent US20260265246A1 (ICAHN SCHOOL OF MEDICINE AT MOUNT SINAI, priority 2021, published 2026).
